In series [1] the test system is Landrace pig bladder strips. Kind of series: Functional potassium channel opening activity in isolated, field-stimulated bladder strips. The settings on record: for Index: ED50 for P1075 divided by ED50 for test agonist in a given tissue, averaged; for EC50 / Emax: Sus scrofa; for EC50: amount causing 50% of the agent's maximal response, field stimulation 0.05 Hz, 0.5 ms, 20 volts, read-out: ED50 (the source's name); for Emax: maximal efficacy on stimulated twitch, relative to P1075. How it is done:
Compound were evaluated for functional potassium channel opening activity using tissue strips obtained from Landrace pig bladders.
Landrace pig bladders were obtained from female Landrace pigs of 9-30 kg. Landrace pig were euthanized with an intraperitoneal injection of pentobarbital solution, Somlethal ®, J. A. Webster Inc. Sterling Mass. The entire bladder was removed and immediately placed into Krebs Ringer bicarbonate solution (composition, mM: NaCl, 120; NaHCO3, 20; dextrose, 11; KCl, 4.7; CaCl2, 2.5; MgSO4, 1.5; KH2PO4, 1.2; K2EDTA, 0.01, equilibrated with 5% CO2/95% O2 pH 7.4 at 37° C.). Propranolol (0.004 mM) was included in all of the assays to block β-adrenoceptors. The trigonal and dome portions were discarded. Strips 3-5 mm wide and 20 mm long were prepared from the remaining tissue cut in a circular fashion. The mucosal layer was removed. One end was fixed to a stationary glass rod and the other to a Grass FT03 transducer at a basal preload of 1.0 gram. Two parallel platinum electrodes were included in the stationary glass rod to provide field stimulation of 0.05 Hz, 0.5 milli-seconds at 20 volts. This low frequency stimulation produced a stable twitch response of 100-500 centigrams. Tissues were allowed to equilibrate for at least 60 minutes and primed with 80 mM KCl. A control concentration response curve (cumulative) was generated for each tissue using the potassium channel opener P1075 as the control agonist. […] After a 60 minute rinsing period, a concentration response curve (cumulative) was generated for the test agonist in the same fashion as that used for control agonist P1075. The maximal efficacy of each compound (expressed as % relative to P1075) is reported. The amount of agent necessary to cause 50% of the agent's maximal response (ED50) was calculated using “ALLFIT” (DeLean et al., Am. J. Physiol., 235, E97 (1980)), hereby incorporated by reference. Agonist potencies were also expressed as an index relative to P1075. The index was calculated by dividing the ED50 for P1075 by the ED50 for the test agonist in a given tissue. Each tissue was used for only one test agonist, and the indices obtained from each tissue were averaged to provide an average index of potency.

Series [2] concerns primary cultured guinea-pig urinary bladder (GPB) cells. Kind of series: Membrane hyperpolarization (MHP) assay, DiBAC(4)3 fluorescence on FLIPR. The class given is cell-based. As to conditions: for Maximal Response (%P1075): maximal steady-state hyperpolarization, normalized to response with 10 μM P1075 (100%); for EC50: Cavia porcellus, concentration eliciting 50% of the maximal response of the test sample. How it is done:
Compounds were evaluated for potassium channel opening activity using primary cultured guinea-pig urinary bladder (GPB) cells.
For the preparation of urinary bladder smooth muscle cells, urinary bladders were removed from male guinea-pigs (Hartley, Charles River, Wilmington, Mass.) weighing 300-400 g and placed in ice-cold Ca^2+-free Krebs solution (composition, mM: KCl, 2.7, KH2PO4, 1.5; NaCl, 75, Na2HPO4, 9.6; Na2HPO4. 7H2O, 8; MgSO4, 2; glucose, 5; HEPES, 10; pH 7.4). Cells were isolated by enzymatic dissociation as previously described with minor modifications (Klockner and Isenberg, Pflugers Arch. (1985), 405, 329-339), hereby incorporated by reference. The bladder was cut into small sections and incubated in 5 mL of the Kreb's solution containing 1 mg/mL collagenase (Sigma, St. Louis, Mo.) and 0.2 mg/mL pronase (Calbiochem, La Jolla, Calif.) with continuous stirring in a cell incubator for 30 minutes. The mixture was then centrifuged at 1300×g for 5 minutes, and the pellet resuspended in Dulbecco's PBS (GIBCO, Gaithersburg, Md.) and recentrifuged to remove residual enzyme. The cell pellet was resuspended in 5 mL growth media (composition: Dulbecco's modified Eagle's medium supplemented with 10% fetal bovine serum, 100 units/mL penicillin, 100 units/mL streptomycin and […] amphotericin B) and further dissociated by pipetting the suspension through a flame-polished Pasteur pipette and passing it through a polypropylene mesh membrane (Spectrum, Houston, Tex.). The cell density was adjusted to 100,000 cells/mL by resuspension in growth media Cells were plated in clear-bottomed black 96-well plates (Packard) for membrane potential studies at a density of 20,000 cells/well and maintained in a cell incubator with 90% air: 10% CO2 until confluent. Cells were confirmed to be of smooth muscle type by cytoskeletal staining using a monoclonal mouse anti human-α-smooth muscle actin (Biomeda, Foster City, Calif.).
Functional activity at potassium channels was measured by evaluating changes in membrane potential using the bis-oxonol dye DiBAC(4)3 (Molecular Probes) in a 96-well cell-based kinetic assay system, Fluorescent Imaging Plate Reader (FLIPR) (K. S. Schroeder et al., J. Biomed. Screen., v. 1 pp. 75-81 (1996)), hereby incorporated by reference. DiBAC(4)3 is an anionic potentiometric probe which partitions between cells and extracellular solution in a membrane potential-dependent manner. With increasing membrane potential (for example, K^+ depolarization), the probe further partitions into the cell; this is measured as an increase in fluorescence due to dye interaction with intracellular lipids and proteins. Conversely, decreasing membrane potential (hyperpolarization by potassium channel openers) evokes a decrease in fluorescence.
Confluent guinea-pig urinary bladder cells cultured in black clear-bottomed 96-well plates were rinsed twice with […] assay buffer (composition, mM: HEPES, 20; NaCl, 120; KCl, 2; CaCl2, 2, MgCl2, 1, glucose, 5; pH 7.4 at 25° C.) containing 5 μM DiBAC(4)3 and incubated with […] of the buffer in a cell incubator for 30 minutes at 37° C. to ensure dye distribution across the membrane. After recording the baseline fluorescence for 5 minutes, the reference or test compounds, prepared at 10 times the concentration in the assay buffer, were added directly to the wells. Changes in fluorescence were monitored for an additional 25 minutes. Hyperpolarization responses were corrected for any background noise and were normalized to the response observed with 10 μM of the reference compound P1075 (assigned as 100%), a potent opener of smooth muscle KATP channels (Quast et al., Mol. Phanmacol., v. 43 pp. 474-481 (1993)).
Routinely, five concentrations of P1075 or test compounds (log or half-log dilutions) were evaluated and the maximal steady-state hyperpolarization values (expressed as % relative to P1075) plotted as a function of concentration. […]

The values that follow come from patent US6495576B2, “Aminal diones as potassium channel openers” (Abbott Laboratories, priority 2001, dated 2002).

Each structure is given as a SMILES string.

In general, melting point refers to the temperature, or range, at which the solid turns liquid. For orientation: Emax means the greatest response seen or fitted, relative to the assay's reference.

Take `CC(C)(C)C(NC(=O)c1cc(F)cc(F)c1)Nc1c(Nc2cccnc2Cl)c(=O)c1=O` (single isomer, unassigned; (+)) [Example 110, (+) N-(1-{[3,4-Dioxo-2-(2-chloro3-pyridinylamino)-1-cyclobuten-1-yl]amino}-2,2-dimethylpropyl)-3,5-difluorobenzamide]: the melting point was in the range of 215 to 216 °C.

In turn, `Cc1ccc(C(=O)NC(Nc2c(Nc3cccnc3)c(=O)c2=O)C(C)(C)C)cc1` (centres unmarked) [Example 1, N-(1-{[3,4-Dioxo-2-(3-pyridinylamino)-1-cyclobuten-1-yl]amino}-2,2-dimethylpropyl)-4-methylbenzamide] yielded an Index in series [1] of 0.008. The “Maximal Response (%P1075)” value in series [2] came to 91 %P1075.

Compound `CC(C)(C)C(NC(=O)c1ccc(Cl)cc1)Nc1c(Nc2cccnc2)c(=O)c1=O` (centres unmarked) [Example 2, 4-Chloro-N-(1-{[3,4-dioxo-2-(3-pyridinylamino)-1-cyclobuten-1-yl]amino}-2,2-dimethylpropyl)benzamide] displayed an Index in series [1] of 0.047. Also, the “Maximal Response (%P1075)” value in series [2] was 108 %P1075.

Compound `C=CCC(C)(C)C(NC(=O)c1ccc(Cl)cc1)Nc1c(Nc2cccnc2)c(=O)c1=O` (centres unmarked) [Example 17, 4-Chloro-N-(-1-{[3,4-dioxo-2-(3-pyridinylamino)-1-cyclobuten-1-yl]amino}-2,2-dimethyl-4-pentenyl)benzamide] came in with an Index in series [1] of 0.028. Besides, the “Maximal Response (%P1075)” value in series [2] is 96 %P1075.

For `CC(C)(Cc1ccccc1)C(NC(=O)c1ccc(Cl)cc1)Nc1c(Nc2cccnc2)c(=O)c1=O` (centres unmarked) [Example 18, 4-Chloro-N-(-1-{[3,4-dioxo-2-(3-pyridinylamino)-1-cyclobuten-1-yl]amino}-2,2-dimethyl-3-phenylpropyl)benzamide], in series [1], the Index is 0.055, the EC50 came out at 17000 nM and the Emax amounted to 62%. Also, in series [2], the EC50 amounted to 510 nM and the “Maximal Response (%P1075)” value is given as 97 %P1075.

For `CCC(CC)(CCC#N)C(NC(=O)c1ccc(Cl)cc1)Nc1c(Nc2cccnc2)c(=O)c1=O` (centres unmarked) [Example 19, 4-Chloro-N-(4-cyano-1-{[3,4-dioxo-2-(3-pyridinylamino)-1-cyclobuten-1-yl]amino}-2,2-diethylbutyl)benzamide], the “Maximal Response (%P1075)” value in series [2] is less than 20 %P1075.

Consider `C=CCOCC(CC)(COCC=C)C(NC(=O)c1ccc(Cl)cc1)Nc1c(Nc2cccnc2)c(=O)c1=O` (centres unmarked) [Example 20, N-(2,2-Bis[(allyloxy)methyl]-1-{[3,4-dioxo-2-(3-pyridinylamino)-1-cyclobuten-1-yl]amino}butyl)-4-chlorobenzamide], for which the “Maximal Response (%P1075)” value in series [2] is on record as 98 %P1075.

Turning to `CC(C)(C)C(NC(=O)c1ccc(I)cc1)NS(=O)(=O)Nc1cccnc1` (centres unmarked) [Example 34, N-(2,2-Dimethyl-1-{[(3-pyridinylamino)sulfonyl]amino}propyl)-4-iodobenzamide], the melting point is 177 to 178 °C.

`CC(C)(C)C(NC(=O)c1cc(Cl)cc(Cl)c1)Nc1c(Nc2cncc(C(F)(F)F)c2)c(=O)c1=O` (centres unmarked) [Example 53, 3,5-Dichloro-N-{1-[(3,4-dioxo-2-{[5-(trifluoromethyl)pyridin-3-yl]amino}-1-cyclobuten-1-yl)amino]-2,2-dimethylpropyl}benzamide] returned a melting point of 233 to 234 °C.

With `Cc1cccc(C(=O)NC(Nc2c(Nc3cccnc3)c(=O)c2=O)C(C)(C)Cc2ccccc2)c1` (centres unmarked) [Example 60, N-(1-{[3,4-Dioxo-2-(3-pyridinylamino)-1-cyclobuten-1-yl]amino}-2,2-dimethyl-3-phenylpropyl)-3-methylbenzamide], in series [1], the Index is 0.87, the EC50 turned out to be 680 nM and the Emax worked out at 88%. In series [2], the EC50 came out at 93 nM and the “Maximal Response (%P1075)” value was 83 %P1075.

The compound `COc1ncccc1Nc1c(NC(NC(=O)c2cccc(C)c2)C(C)(C)C)c(=O)c1=O` (centres unmarked) [Example 81, N-[1-({2-[(2-Methoxypyridin-3-yl)amino]3,4-dioxo-1-cyclobuten-1-yl}amino)-2,2-dimethylpropyl]-3-methylbenzamide] showed a melting point of 224 to 226 °C.

Compound `COc1ncccc1Nc1c(NC(NC(=O)c2cc(F)cc(F)c2)C(C)(C)C)c(=O)c1=O` (centres unmarked) [Example 82, 3,5-Difluoro-N-[1-({2-[(2-methoxypyridin-3-yl)amino]-3,4-dioxo-1-cyclobuten-1-yl}amino)-2,2-dimethylpropyl]benzamide] yielded a melting point of 221 to 223 °C.

Turning to `COc1ncccc1Nc1c(NC(NC(=O)c2cccc(C)c2)C(C)(C)Cc2ccccc2)c(=O)c1=O` (centres unmarked) [Example 83, N-[1-({2-[(2-Methoxypyridin-3-yl)amino]-3,4-dioxo-1-cyclobuten-1-yl}amino)-2,2-dimethyl-3-phenylpropyl]-3-methylbenzamide], the melting point lay in the range of 233 to 235 °C.

For the compound `CC(C)(C)C(NC(=O)c1cccc(Cl)c1)Nc1c(Nc2cccnc2Cl)c(=O)c1=O` (centres unmarked) [Example 95, 3-Chloro-N-[1-({2-[(2-chloropyridin-3-yl)amino]-3,4-dioxo-1-cyclobuten-1-yl}amino)-2,2-dimethylpropyl]benzamide], the melting point fell in the range of 213 to 214 °C.

Regarding `CC(C)(C)C(NC(=O)c1cc(F)cc(F)c1)Nc1c(Nc2cccnc2Cl)c(=O)c1=O` (centres unmarked) [Example 110A, N-(1-{[3,4-Dioxo-2-(2-chloro3-pyridinylamino)-1-cyclobuten-1-yl]amino}-2,2-dimethylpropyl)-3,5-difluorobenzamide], the melting point lay within 215 to 217 °C.
